This experiment deals with hematopoietic progenitor cells induced from MDS-iPS cells. In words: Colony formation assay of hematopoietic progenitor cells with p38 inhibitor added. As to conditions: 10 μM SB203580 in methylcellulose medium, HPC from MDS-iPSC and Normal iPSC derived from KM5 and KM16, colonies counted after 14 or 15 days, FIG. 19. It counts as cell-based, human. The protocol: Using a 35 mm culture dish, 2500 cells from the cells of CD43^+CD34^+CD38^− fraction induced to differentiate from iPS cells (abnormal MDS-iPSCs (NonT-iPS) and Normal iPSCs (T-iPS)) and extracted by flow cytometer were seeded in 2 ml of a methylcellulose medium containing SCF, G-CSF, GM-CSF, IL-3, IL-6 and EPO (MethoCult H4435) according to the method of Example 2. After 15 days, the number of the colonies was counted under a microscope. After Cytospin, Wright's staining was performed, and the colony type was identified by microscopic observation.
To study whether the decreased colony-forming ability of hematopoietic progenitor cells induced from MDS-iPS cells is recovered by the effect of p38 inhibitor, colony formation assay was performed by a method similar to Example 3 except that a p38 inhibitor was added. In brief, using a 35 mm culture dish, 2500 cells from the cells of CD43+CD34+CD38-fraction induced to differentiate from iPS cells (MDS-iPSCs (NonT-iPS)) and Normal iPSCs (T-iPS)) and extracted by flow cytometer were seeded in 1.1 ml of a methylcellulose medium containing SCF, G-CSF, GM-CSF, IL-3, IL-6, EPO and 10 μM SB203580 (p38 inhibitor) according to the method of Example 2. After 14 or 15 days, the number of colonies was counted under a microscope. Furthermore, after Cytospin, Wright's staining was performed, and the colony type was identified by microscopic observation.

As to `C[S+]([O-])c1ccc(-c2nc(-c3ccncc3)c(-c3ccc(F)cc3)[nH]2)cc1` (centres unmarked) [SB203580], the “colony-forming ability (number of colonies)” value is listed as “colony-forming ability-improving effect”. The “colony-forming ability (number of colonies)” value (listed as p38 inhibitor) is on record as “improving effect on the colony-forming ability”.

These data come from patent publication US20160146788A1, “METHOD FOR SCREENING DRUGS FOR TREATING/PREVENTING MYELODYSPLASTIC SYNDROME, ETC” (KYOTO UNIVERSITY, priority 2013, published 2016).
